Holding throughout (assay): NCI tumour cell line growth inhibition, 48 h
Test [1] concerns DLD-1.
Test [2] relates to DMS-114.
The subject of test [3] is HOP-18.
Test [4] has as its system KM-20L2.
Test [5] deals with LXFL 529.
For test [6], the system named is M19-MEL.
For test [7], the system named is SNB-78.
The test system of test [8] is XF498.
Test [9] has as its system RXF 631.

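Where inhibition never reached the appropriate level, the endpoint shown equals the highest concentration tested. Otherwise, values were interpolated linearly from a five-concentration, 48-hour dose response in 96-well plates. The concentration for 50% growth inhibition is given as GI50.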 The source made the active and inactive calls. Rule as the data show it: active = GI50 up to about 1.1 µM and inactive = higher. Where a SMILES comes first, the peptide text is derived from it. [ ]: non-standard residue; d: D form. The star is where a group is joined. ξ: configuration not given here. X4 = COc1ccc(C(N*)c2ccc(OC)cc2)cc1; NMeF = CN[C@@H](Cc1ccccc1)C(=O)O; NMeD = CN[C@@H](CC(=O)O)C(=O)O; NMeV = CN[C@H](C(=O)O)C(C)C; ξNMeV = CNC(C(=O)O)C(C)C; Boc = CC(C)(C)OC(=O)*; ξNMeA = CNC(C)C(=O)O; ξV = CC(C)C(N)C(=O)O

In the case of `Clc1ncnc2c1ncn2CCCCCCCCCCCCn1cnc2c(Cl)ncnc21`, the GI50 in test [1] is 7.94 µM (inactive); in test [2] it was 1.67 µM (inactive); in test [3], 17.1 µM (inactive); in test [4] it was 16.1 µM (inactive); in test [5], 4.44 µM (inactive); in test [6] it was 2.27 µM (inactive). The figures for the GI50 in test [7] and in [8] were 3.56 µM (inactive) and 9.38 µM (inactive), respectively.

Turning to `COc1ccc(C(NC(=O)C[C@@H](C(=O)N(C)C(C)C(=O)O)N(C)C(=O)[C@@H]2CCCN2C(=O)[C@H](C(C)C)N(C)C(=O)C(C(C)C)N(C)C(=O)[C@H](Cc2ccccc2)N(C)C(=O)C(NC(=O)OC(C)(C)C)C(C)C)c2ccc(OC)cc2)cc1` (stereo partly specified) (Boc-[ξV][NMeF][ξNMeV][NMeV]P[NMeD](X4)[ξNMeA]-OH), the GI50 was 18 µM (inactive) in test [1]; 16.5 µM (inactive) in test [2]; 19.9 µM (inactive) in test [4]; 14.7 µM (inactive) in [5]; 16.9 µM (inactive) in test [6]; 15.8 µM (inactive) in test [7]. Further, in [8], the GI50 was 15.8 µM (inactive).

For the compound `C[N+](C)(C)CC(=O)N/N=C(/Cc1nc2c3c(ccc2nc1O)C(=O)c1ccccc1C3=O)C(=O)Nc1ccc(Cl)c(Cl)c1`, the GI50 in test [1] was 17.9 µM (inactive); in test [2] it was 27 µM (inactive); in test [4] it was > 100 µM (inactive); in test [6], 38.2 µM (inactive); in test [9], 76.6 µM (inactive).

Turning to `Cc1cc(C)nc(NS(=O)(=O)c2ccc(Nc3c4ccc(Cl)cc4nc4c(C(=O)Nc5ccc(S(=O)(=O)N=C(N)N)cc5)cccc34)cc2)n1`, the GI50 in test [1] was > 100 µM (inactive); in test [2], 41.7 µM (inactive); in test [4], > 100 µM (inactive); in test [5], 66.7 µM (inactive); in test [6] it was > 100 µM (inactive); in test [7], 39.9 µM (inactive). In [8], the GI50 is > 100 µM (inactive).

With `CCCCCCCCCCCCCCCC(=O)OCC1OC(OC)C(NC(=O)N(CCCl)N=O)C(O)C1O` (stereo unspecified), the GI50 in test [1] is 14.7 µM (inactive); in [2] it was 13.2 µM (inactive); in test [3] it was 32.4 µM (inactive); in test [4] it was 20.3 µM (inactive); in [5] it was 16.3 µM (inactive); in test [6] it was 22.5 µM (inactive). Besides, the GI50 is 24.5 µM (inactive) in test [7] and 7.66 µM (inactive) in test [8].

`CC1=NN(C(=O)c2ccccc2O)C(=O)/C1=C/c1ccc([N+](=O)[O-])cc1`: the GI50 in test [1] was 0.0643 µM (active); in test [2], 0.0875 µM (active); in [4] it was 7.96 µM (inactive); in test [5], 0.0586 µM (active); in test [6], 2.3 µM (inactive); in [7], 0.0861 µM (active). The GI50 in test [8] was 0.664 µM (active).

Take `O=C(Cc1nc2ccccc2c(=O)n1-c1c(Cl)cccc1Cl)c1ccncc1`: the GI50 in test [1] is 26.7 µM (inactive); in [2], 25.2 µM (inactive); in test [3], 33.8 µM (inactive); in [4], 27.5 µM (inactive); in test [5], 27.7 µM (inactive); in test [6], 20.3 µM (inactive). Further, the GI50 is 23.9 µM (inactive) in test [9] and 34.1 µM (inactive) in test [7].

Turning to `Cc1nc(-c2nc(C)c(C(=O)/C=C/c3ccc([N+](=O)[O-])cc3)s2)sc1C(=O)/C=C/c1ccc([N+](=O)[O-])cc1`, the GI50 in test [1], in test [2], in test [4], in test [5], in test [6] and in test [7] was > 100 µM (inactive) in each case.

Take `CC12Oc3ccc4ccccc4c3C1c1c(ccc3ccccc13)O2` (stereo unspecified): the GI50 in test [1], in [2], in [4], in test [5], in test [6] and in test [7] was > 100 µM (inactive) throughout. Besides, the GI50 in test [8] is > 100 µM (inactive).

As to `COC(=O)CCCN(C)c1nc(N)n[nH]1`, the GI50 in [1], in [2], in [4], in [5], in [6] and in test [7] was > 100 µM (inactive) in each case.

Turning to `C/C(=N\NC(=N)N)C(CN1CCCCC1)C(c1ccccc1)c1c(O)c2ccccc2oc1=O` (stereo unspecified), the GI50 in test [1], in [2], in test [4], in test [5], in [6] and in test [9] was > 100 µM (inactive) throughout. Also, the GI50 in test [8] was > 100 µM (inactive).

With `COc1ccc(C2[C@H]3C(=O)N(c4ccc(Cc5ccc(N6C(=O)[C@@H]7ON(c8ccccc8)C(c8ccc(OC)cc8)[C@@H]7C6=O)cc5)cc4)C(=O)[C@H]3ON2c2ccccc2)cc1` (stereo partly specified), the GI50 in [1], in test [3], in test [4], in test [5], in [6] and in [7] was > 100 µM (inactive) each time.

`Cc1ccc(C2=NN(C)COC2C(F)(F)F)cc1` (stereo unspecified): the GI50 in [1], in test [2], in test [3], in [4], in test [5] and in test [6] was > 100 µM (inactive) in each case. Moreover, the GI50 in test [9] and in [7] was > 100 µM (inactive) in each case.

In the case of `CCOC(=O)N1CCN(C=S)CC1`, the GI50 in test [1], in test [2], in test [3], in test [4], in test [5] and in test [6] was > 100 µM (inactive) in each case. Moreover, the GI50 in [9] and in test [7] was > 100 µM (inactive) each time.

With `Cc1c(CNc2ccc(C(=O)NC(CC(=O)O)C(=O)O)cc2)ccc2nc(N)nc(N)c12` (stereo unspecified), the GI50 in test [1] was < 0.01 µM (active); in [2], < 0.01 µM (active); in test [3] it was 0.867 µM (active); in test [5], < 0.01 µM (active); in [6], 0.122 µM (active); in [7], > 100 µM (inactive). The GI50 in [8] is 68.1 µM (inactive).

Turning to `C[N+](C)(C)CC1CCC/C1=N\OC(=O)c1ccccc1` (stereo unspecified), the GI50 in test [1], in test [2], in [3], in test [4], in test [5] and in test [6] was > 100 µM (inactive) each time. Besides, the GI50 in test [7] and in test [8] was > 100 µM (inactive) throughout.

As for `O=C(/C=C/c1ccccc1Cl)c1ccc(Cl)cc1Cl`, the GI50 in test [1] is 17.3 µM (inactive); in test [2], 11.8 µM (inactive); in test [3], 17 µM (inactive); in test [4], 15.1 µM (inactive); in test [5], 16.2 µM (inactive); in test [6], 18 µM (inactive). The results for the GI50 in test [9] and in test [7] were 19 µM (inactive) and 19.1 µM (inactive), respectively.

For `COc1ccc(CC2(Cc3ccc(OC)cc3)CCOC2=O)cc1`, the GI50 in [1] was > 100 µM (inactive); in test [2] it was 23.9 µM (inactive); in test [5] it was > 100 µM (inactive); in [6] it was > 100 µM (inactive); in [8] it was 0.582 µM (active).

For `C#CCNC(=O)ON1C(=O)CCC1=O`, the GI50 in [1], in [3], in test [4], in test [5], in test [6] and in test [9] was > 100 µM (inactive) each time. Besides, the GI50 in test [7] was > 100 µM (inactive).

In the case of `CCCCCCCCCCCC1CC(=O)NCCCN(C)CCCCN(C)CCCN1C` (stereo unspecified) [BUDMUNCHIAMINE A], the GI50 in [1] was 1.6 µM (inactive); in test [2], 1.78 µM (inactive); in test [3] it was 1.77 µM (inactive); in [4], 1.65 µM (inactive); in test [5], 1.72 µM (inactive); in [6] it was 1.76 µM (inactive). The GI50 in [7] was 1.79 µM (inactive); in test [8] it was 1.65 µM (inactive).

Consider `[N-]=[N+]=N[C@H]1C[C@@H](CO)O[C@H]1n1cnc2c(N)ncnc21`, for which the GI50 is > 100 µM (inactive) in test [1]; > 100 µM (inactive) in test [2]; 0.202 µM (active) in test [3]; > 100 µM (inactive) in [4]; > 100 µM (inactive) in test [5]; > 100 µM (inactive) in test [6]. The GI50 in [7] was > 100 µM (inactive); in [8], 31.2 µM (inactive).

As to `COC(=O)c1c(CC(=O)OC(C)C)cc2n(c1=O)Cc1c-2nc2ccccc2c1OC`, the GI50 in test [1], in test [2], in test [3], in test [4], in [5] and in [6] was > 100 µM (inactive) in each case. In addition, the GI50 in [8] is > 100 µM (inactive).

On to `Cc1cccc(NC(=O)Cc2nc3ccccc3s2)c1C`, for which the GI50 in [1], in test [2], in test [4], in test [5], in test [6] and in test [9] was > 100 µM (inactive) each time. For the same compound, the GI50 in [8] was > 100 µM (inactive).

Consider `c1ccc(CNc2ccc3[nH]c4cnccc4c3c2)cc1`, for which the GI50 was 16.6 µM (inactive) in test [1]; 14.8 µM (inactive) in test [2]; 16.2 µM (inactive) in test [4]; 16.6 µM (inactive) in test [5]; 18.7 µM (inactive) in test [6]; 20.6 µM (inactive) in [9]. The figures for the GI50 in [7] and in [8] were 20.9 µM (inactive) and 19.4 µM (inactive), respectively.

The values above are taken from ChEMBL document CHEMBL1201862, “PubChem BioAssay data set” (2004).
